Nine molecules from patent publication US10919899B2, “Imidazopyrazine compounds, preparation methods and uses thereof” (DONGGUAN ZHENXING-BEITE MEDICINE TECHNOLOGY CO., LTD., priority 2017, dated 2021) can be followed below.

One assay deals with BTK (Homo sapiens (Human), UniProt Q06187). Description: BTK kinase activity inhibition assay (Caliper mobility shift). It is filed as biochemical. The following applies: ATP 90 μM, read-out: BTK IC50 level. The procedure: Activity of BTK protein kinase was tested by Caliper mobility shift assay (referring to J Biomol Screen 14:31, 2009). The compound of the present disclosure was dissolved in DMSO and then diluted 10-fold with kinase buffer solution (50 mM HEPES-pH 7.5, 0.0015% Brij-35, 10 mM MgCl2, 2 mM DTT). […] 10 μl of a substrate solution of a substrate FAM-labeled SRCtide peptide (Biochem, Cat. No. 112394) and ATP (90 μM) with 2.5-fold final reaction concentration was further added to start the reaction. Then incubation was performed for 10 minutes at room temperature. After incubation for 1 hour 28° C., 25 μl of stopping solution (100 mM HEPES, pH 7.5, 0.015% Brij-35, 0.2% Coating Reagent #3, 50 mM EDTA) was added to terminate the reaction. The conversion ratio data was read on Caliper EZ Reader II (Caliper Life Sciences). The inhibition ratio was calculated and the calculation formula is: inhibition ratio %=(max-conversion)/(max-min)×100 %.
Sequence of BTK (Q06187 whole entry): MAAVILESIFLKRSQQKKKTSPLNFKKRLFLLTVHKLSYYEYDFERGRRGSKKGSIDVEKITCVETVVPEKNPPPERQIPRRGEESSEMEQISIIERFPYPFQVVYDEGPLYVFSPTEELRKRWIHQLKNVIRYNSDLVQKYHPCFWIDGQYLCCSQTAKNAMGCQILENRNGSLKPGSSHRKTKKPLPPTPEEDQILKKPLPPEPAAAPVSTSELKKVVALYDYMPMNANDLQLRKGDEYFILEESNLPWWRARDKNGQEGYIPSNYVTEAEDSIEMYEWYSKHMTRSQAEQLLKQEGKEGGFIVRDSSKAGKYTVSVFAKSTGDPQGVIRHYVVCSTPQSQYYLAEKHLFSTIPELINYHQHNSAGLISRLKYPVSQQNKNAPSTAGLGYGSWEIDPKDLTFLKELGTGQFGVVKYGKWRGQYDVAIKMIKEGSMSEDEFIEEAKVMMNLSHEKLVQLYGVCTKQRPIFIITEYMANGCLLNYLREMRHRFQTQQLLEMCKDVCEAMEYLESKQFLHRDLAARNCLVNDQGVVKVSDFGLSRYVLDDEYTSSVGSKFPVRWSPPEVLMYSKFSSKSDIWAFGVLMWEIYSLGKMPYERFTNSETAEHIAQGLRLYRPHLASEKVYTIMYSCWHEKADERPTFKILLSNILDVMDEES

The subject of a further assay is HCC827 NSCLC cell. Description: Tumor cell proliferation inhibition assay (CellTiter-Glo), HCC827. It is filed as cell-based. As to conditions: Homo sapiens, 72 hours, 10% fetal calf serum, read-out: HCC827 anti-proliferative IC50 level. The procedure: (§1) Cell viability was evaluated by measuring a content of triphosadenine (ATP) by using CellTiter-Glo luminescent cell viability assay kit method (Promega, # G7572, Madison, Wis.). Diffuse large B cell lymphoma cell strain TMD-8 and HCC827 NSCL cell strains are purchased from Shanghai Fudan IBS Cell Center and American Type Culture Collection (ATCC). After the cells were digested from a cell culture dish by pancreatin and re-suspended by DPBS culture medium, a Scepter automatic cell counter (Millipore, # PHCC00000) was used for counting to measure a cell density. The cells were diluted to be a solution containing 44,000 cells per milliliter. The cell solution with the adjusted density was added into a cell assay plate with 90 μl per well. The well plate was placed to an incubator with 5% CO2 at 37° C. to be incubated for 24 hours and then added with the compound to be tested with different concentrations. The cells and the compound were together incubated for 72 hours in the presence of 10% fetal calf serum. The content of ATP was measured by using CellTiter-Glo® Luminescent Cell Viability Assay kit (referring to manufacturer's instruction) to evaluate the inhibition to the cell growth. Briefly speaking, each well was added with 30 μl of CellTiter-Glo® reagent, the plate was shaken for 10 minutes to induce the cells to be lysed, and fluorescence signal was detected and recorded by fluorescencelchemiluminescence analyzer Fluoroskan Ascent FL (Thermo Scientific Fluoroskan Ascent FL). The maximal signal value was obtained from cells processed by dimethyl sulfoxide (DMSO) for 72 or 120 hours. The minimal signal value obtained from separate culture medium (wherein the number of cells was zero) was defined as 0. Inhibition ratio %=(maximal signal value-compound signal value)/(maximal signal value−minimal signal value)×100%. The data was processed by using GraphPad Prism V5.0 (GraphPad Software San Diego, Calif.) software. IC50 value was fitted and calculated via S-shaped dose-response curve.
(In general: Cellular ATP, detected with luciferase, serves as a proxy for viable cell number.)

Assay [1] has as its system Diffuse large B cell lymphoma cell strain TMD-8. Kind of assay: Tumor cell proliferation inhibition assay (CellTiter-Glo), TMD-8. It counts as cell-based. The following applies: Homo sapiens, TMD8; 72 hours, 10% fetal calf serum; read-out: TMD-8 anti-proliferative IC50 level. The procedure: as §1

Bounds are passed on as bounds.

What is called IC50 is the concentration that gives 50% inhibition. Regarding `CC#CC(=O)N1CCC[C@H]1c1nc(-c2ccc(OCc3ccc(C(F)(F)F)cc3)cc2)c2c(N)nccn12` [Compound 2, (S)-1-(2-(8-amino-1-(4-((4-(trifluoromethyl)benzyl)oxy)phenyl)imidazo[1,5-a]pyrazin-3-yl)pyrrolidin-1-yl)but-2-yn-1-one], the values for the half-maximal inhibitory concentration (IC50) (on BTK; in the assay on HCC827 NSCLC cell; in assay [1]) were > 750 nM, 1000 to 10000 nM and 100 to 500 nM, respectively.
For `CC#CC(=O)N1CCC[C@H]1c1nc(-c2ccc(OCc3ccccc3)nc2)c2c(N)nccn12` [Compound 9, (S)-1-(2-(8-amino-1-(6-(benzyloxy)pyridin-3-yl)imidazo[1,5-a]pyrazin-3-yl)pyrrolidin-1-yl)but-2-yn-1-one], the IC50 at BTK is > 750 nM.
Consider `CC#CC(=O)N1CCC[C@H]1c1nc(-c2ccc(OCc3ccc(F)cc3)cc2)c2c(N)nccn12` [Compound 3, (S)-1-(2-(8-amino-1-(4-((4-fluorobenzyl)oxy)phenyl)imidazo[1,5-a]pyrazin-3-yl)pyrrolidin-1-yl)but-2-yn-1-one], for which the IC50 on BTK was > 750 nM; in the assay on HCC827 NSCLC cell it was > 10000 nM; in assay [1] it was 100 to 500 nM.
For the molecule `CC#CC(=O)N1CCC[C@H]1c1nc(-c2ccc(OCc3cc(F)ccn3)cc2)c2c(N)nccn12` [Compound 6, (S)-1-(2-(8-amino-1-(4-((4-fluoropyridin-2-yl)methoxy)phenyl)imidazo[1,5-a]pyrazin-3-yl)pyrrolidin-1-yl)but-2-yn-1-one], the IC50 was > 750 nM on BTK, > 10000 nM in the assay with HCC827 NSCLC cell and 100 to 500 nM in assay [1].
The corresponding values for `C=CC(=O)N1CCC[C@H]1c1nc(-c2ccc(OCc3ccccn3)cc2)c2c(N)nccn12` [Compound 29, (S)-1-(2-(8-amino-1-(4-(pyridin-2-ylmethoxy)phenyl)imidazo[1,5-a]pyrazin-3-yl)pyrrolidin-1-yl)prop-2-en-1-one] are 100 to 300 nM, 1000 to 10000 nM and ≤ 100 nM.
In the same order, the values of `C=CC(=O)N1CCC[C@H]1c1nc(-c2ccc(OCc3ccccc3)cc2)c2c(N)nccn12` [Compound 21, (S)-1-(2-(8-amino-1-(4-(benzyloxy)phenyl)imidazo[1,5-a]pyrazin-3-yl)pyrrolidin-1-yl)prop-2-en-1-one] are ≤ 100 nM, > 10000 nM and ≤ 100 nM.
As to `CC#CC(=O)N1CCC[C@H]1c1nc(-c2ccc(OCc3ccccn3)cc2)c2c(N)nccn12` [Compound 5, (S)-1-(2-(8-amino-1-(4-(pyridin-2-ylmethoxy)phenyl)imidazo[1,5-a]pyrazin-3-yl)pyrrolidin-1-yl)but-2-yn-1-one], the IC50 on BTK lay within 300 to 750 nM.
Still for that read-out and setting: in the case of `CC#CC(=O)N1CCC[C@H]1c1nc(-c2ccc(OCCc3ccccc3)cc2)c2c(N)nccn12` [Compound 17, (S)-1-(2-(8-amino-1-(4-phenethoxyphenyl)imidazo[1,5-a]pyrazin-3-yl)pyrrolidin-1-yl)but-2-yn-1-one] it was 300 to 750 nM.
Turning to `C=CC(=O)N1CCC[C@H]1c1nc(-c2ccc(OCc3ccccc3)nc2)c2c(N)nccn12` [Compound 25, (S)-1-(2-(8-amino-1-(6-(benzyloxy)pyridin-3-yl)imidazo[1,5-a]pyrazin-3-yl)pyrrolidin-1-yl)prop-2-en-1-one], the results for the IC50 (at BTK; in the assay with HCC827 NSCLC cell; in assay [1]) were ≤ 100 nM, > 10000 nM and ≤ 100 nM, respectively.
